TGI data for seven molecules are collected here from PubChem BioAssay (NCI).

Test in all cases: NCI tumour cell line growth inhibition, 48 h
For assay [1], the system named is SW-620 colon.
The subject of assay [2] is T-47D breast.
The test system of assay [3] is SNB-19 CNS.
Assay [4] relates to HS 578T breast.
The test system of assay [5] is M14 melanoma.
For assay [6], the system named is CCRF-CEM leukemia.
The subject of assay [7] is RPMI-8226 leukemia.
The test system of assay [8] is SK-MEL-2 melanoma.
For assay [9], the system named is K-562 leukemia.
The test system of assay [10] is ACHN renal.

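Five concentrations, 48 hours, 96-well plates. TGI: total growth inhibition.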

For `CN(Cc1cnc2nc(N)nc(N)c2n1)c1ccc(C(=O)NC(CCC(=O)NC(P(=O)(O)O)P(=O)(O)O)C(=O)O)cc1` (stereo not given), the TGI in assay [1] was 28.3 µM; in assay [2] it was over 100 µM; in [3], 27.6 µM; in assay [4], over 100 µM; in assay [5], over 100 µM; in [6], over 100 µM. Further, the TGI in [7], in [8], in [9] and in assay [10] was over 100 µM each time.

As to `[N-]=[N+]=Nc1ccc(CNc2cc(=O)[nH]c(=O)[nH]2)cc1`, the TGI in [1], in assay [2], in [3], in assay [4], in assay [5] and in assay [6] was over 100 µM throughout. Also, the TGI in [7], in [8], in [9] and in assay [10] was over 100 µM throughout.

For the molecule `Cc1c2c(OCCCCN3CCN(c4ncccn4)CC3)nn(C)c(=O)c2c(C)n1-c1ccccc1`, the TGI in assay [1] was 69.4 µM; in assay [2] it was 45.8 µM; in assay [3] it was 33.3 µM; in assay [4], 67.8 µM; in [5], 35.9 µM; in assay [6] it was over 100 µM. In addition, the TGI in assay [7] is 74.4 µM; in assay [8], 34.6 µM; in assay [9] it was over 100 µM; in [10], 31.3 µM.

As for `CN(C)CCNc1ncnc2nc(-c3ccc4ccccc4c3)[nH]c12`, the TGI in assay [1], in [2], in [3], in [4], in [5] and in assay [6] was over 100 µM in each case. Moreover, the TGI in assay [7], in assay [8], in [9] and in [10] was over 100 µM in each case.

For the molecule `COc1cc(S(=O)(=O)Nc2ccc(-c3csc(N4C(=O)CSC4c4ccccc4)n3)cc2)ccc1Cl` (stereo not given), the TGI in assay [1] is over 100 µM; in assay [2] it was 44.7 µM; in assay [3], over 100 µM; in [4], over 100 µM; in assay [5], over 100 µM; in assay [6], over 100 µM. Also, the TGI in assay [7] was 89.3 µM; in assay [8], over 100 µM; in assay [9], over 100 µM; in assay [10], over 100 µM.

For `Cc1ccc(C(=O)/C(C#N)=C/Nc2c(C)n(C)n(-c3ccccc3)c2=O)cc1`, the TGI in [1], in assay [2], in assay [3], in [4], in assay [5] and in assay [6] was over 100 µM in each case. For the same molecule, the TGI in assay [7], in [8], in [9] and in [10] was over 100 µM each time.

Take `Cc1ccc(N=Nc2c(C)c(C#N)c(=S)n(C3OC(CO)C(O)C(O)C3O)c2-c2ccccc2)cc1` (stereo not given): the TGI in assay [1] stood at 36.3 µM; in assay [2], 57.2 µM; in assay [3] it was 48.1 µM; in assay [4], 60.4 µM; in assay [5] it was 30.4 µM; in assay [6], 48.1 µM. Besides, the TGI was over 100 µM in [7], 45.6 µM in [8], 83.3 µM in assay [9] and over 100 µM in assay [10].
